Experimental findings from patent US10696693B2, “Fused imidazole derivatives as TGF-beta inhibitors” (Rigel Pharmaceuticals, Inc., priority 2014, dated 2020) are described below.

One assay deals with GDF8. The assay is described as follows: AlphaScreen SureFire p-SMAD3 (Ser423/425) assay, GDF8-stimulated cells. It counts as cell-based. The method in brief:
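A SureFire AlphaScreen assay measured phosphorylation of endogenous SMAD-3 at Ser423/425 in cell lysates. Cells were treated with three-fold serially diluted compounds in DMSO for about 10 minutes, then stimulated with GDF8. After medium removal, cells were lysed in 1× Lysis Buffer (about 25 μL) with gentle shaking for 5-10 minutes.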
Background: Alpha assays give light when donor and acceptor beads are brought close together.

In a further assay the test system is TGF-β. As to the kind of experiment: AlphaScreen SureFire p-SMAD3 (Ser423/425) assay, TGF-β-stimulated cells. The class given is cell-based. The note with it: Mus musculus. The method in brief:
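The p-SMAD-3 (Ser423/425) SureFire assay measured phosphorylation of endogenous SMAD-3 in cell lysates. Cells were plated overnight in collagen-coated plates, exposed to three-fold serially diluted compounds for about 10 minutes, then stimulated with TGFβ. Lysates (5 μL) received acceptor bead mix for 2 hours, then donor beads for 1½ hours before AlphaScreen reading.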

Where [1] appears, read: Mus musculus, MPC-11, p-SMAD3 (Ser423/425) AlphaScreen in cell lysate, MPC11, GDF8 stimulation, read-out: GDF8: inhibition of GDF8 signaling, GDF pSMAD (MPC11).
Setting [2] is: p-SMAD3 (Ser423/425) AlphaScreen in cell lysate, MPC-11, TGF-β stimulation, read-out: TGF-β: inhibition of TGF-β signaling, TGF-β pSMAD (MPC-11).
[3] abbreviates: MPC-11, read-out: TGF-β: inhibition of TGF-β signaling, TGF-β pSMAD (MPC-11), p-SMAD3 (Ser423/425) AlphaScreen in cell lysate, TGF-β stimulation.
Where [4] appears, read: Mus musculus, MPC-11, read-out: GDF8: inhibition of GDF8 signaling, GDF pSMAD (MPC11), p-SMAD3 (Ser423/425) AlphaScreen in cell lysate, GDF8 stimulation.

Where two headings read alike, the source gives them in different places.

Turning to `Cc1cc(-c2nc3n(c2-c2ccc4[nH]ncc4c2)CCC3)c(F)cc1F` [Compound 268, 5-(2-(2,4-difluoro-5-methylphenyl)-6,7-dihydro-5H-pyrrolo[1,2-a]imidazol-3-yl)-1H-indazole], the values for the IC50 in the assay on GDF8 (setting [1]) and with TGF-β (setting [2]) were less than 50 nM and 50 to 100 nM, respectively.

`Cc1cc(-c2nc3n(c2-c2ccc4ncccc4c2)CCC3)c(Cl)cc1F` [Compound 319, 6-(2-(2-chloro-4-fluoro-5-methylphenyl)-6,7-dihydro-5H-pyrrolo[1,2-a]imidazol-3-yl)quinoline]: the IC50 in the assay with GDF8 (read-out: GDF8: inhibition of GDF8 signaling, GDF pSMAD (MPC11), p-SMAD3 (Ser423/425) AlphaScreen in cell lysate, GDF8 stimulation) is 100 to 1000 nM; in the assay on TGF-β (setting [3]), more than 1000 nM.

As for `Fc1cc(F)c(-c2nc3occn3c2-c2ccc3[nH]ncc3c2)cc1F` [Compound 152, 6-(2,4,5-trifluorophenyl)-5-(1H-indazol-5-yl)imidazo[2,1-b]oxazole], the results for the IC50 in the assay on GDF8 (setting [1]) and in the assay with TGF-β (setting [2]) were less than 50 nM and 50 to 100 nM, respectively.

For the compound `Cc1cc(F)c(-c2nc3n(c2-c2ccc4nccn4c2)CCC3)cc1F` [Compound 48, 6-(2-(2,5-difluoro-4-methylphenyl)-6,7-dihydro-5H-pyrrolo[1,2-a]imidazol-3-yl)imidazo[1,2-c]pyridine], the IC50 with GDF8 (setting [1]) and in the assay on TGF-β (setting [2]) was more than 1000 nM throughout.

As for `Fc1cc(Cl)c(-c2nc3n(c2-c2ccc4nccn4c2)CCC3)cc1F` [Compound 50], the IC50 in the assay with GDF8 (setting [1]) was in the range of 50 to 100 nM; in the assay on TGF-β (setting [2]) it was 100 to 1000 nM.

In the case of `FC(F)(F)c1cccc(-c2nc3n(c2-c2ccc4[nH]ncc4c2)CCC3)c1` [Compound 181, 5-(2-(3-(trifluoromethyl)phenyl)-6,7-dihydro-5H-pyrrolo[1,2-a]imidazol-3-yl)-1H-indazole], the IC50 fell in the range of 50 to 100 nM in the assay with GDF8 (setting [1]) and 100 to 1000 nM in the assay with TGF-β (setting [2]).

For the compound `Fc1cc(F)c(-c2nc3occn3c2-c2ccc3ncccc3c2)cc1F` [Compound 150, 5-(quinolin-6-yl)-6-(2,4,5-trifluorophenyl)imidazo[2,1-b]oxazole], the IC50 with GDF8 (setting [1]) is less than 50 nM; in the assay on TGF-β (setting [2]), 50 to 100 nM.

Turning to `Fc1ccc(-c2cn3ccoc3n2)cc1F` [Compound 131, 6-(3,4-difluorophenyl)imidazo[2,1-b]oxazole], the IC50 in the assay on GDF8 (setting [1]) and with TGF-β (setting [2]) was more than 1000 nM throughout.

In the case of `CCOC(=O)C1CCC2(CC1)Cc1nc(-c3ccc(F)cc3)c(-c3ccc4ncnn4c3)n1C2` (stereo not drawn) [Compound 77, ethyl 3′-([1,2,4]triazolo[1,5-a]pyridin-6-yl)-2′-(4-fluorophenyl)-5′H,7′H-spiro[cyclohexane-1,6′-pyrrolo[1,2-a]imidazole]-4-carboxylate], the IC50 in the assay with GDF8 (setting [4]) and with TGF-β (setting [3]) was more than 1000 nM in each case.

Regarding `Nc1ncnc2ccc(-c3c(-c4cc(F)c(F)cc4F)nc4n3CCC4)cc12` [Compound 345, 6-(2-(2,4,5-trifluorophenyl)-6,7-dihydro-5H-pyrrolo[1,2-a]imidazol-3-yl)quinazolin-4-amine], the IC50 in the assay with GDF8 (setting [1]) is less than 50 nM; in the assay on TGF-β (setting [2]), 50 to 100 nM.

With `Cc1cc(-c2nc3n(c2-c2ccc4nccn4c2)CCC3)c(F)cc1Cl` [Compound 29], the IC50 with GDF8 (setting [1]) and in the assay with TGF-β (setting [2]) was more than 1000 nM throughout.

For `Cc1cc(F)c(Cl)cc1-c1nc2n(c1-c1ccc3[nH]ncc3c1)CCC2` [Compound 296, 5-(2-(5-chloro-4-fluoro-2-methylphenyl)-6,7-dihydro-5H-pyrrolo[1,2-a]imidaol-3-yl)-1H-indazole], the IC50 with GDF8 (setting [1]) was 100 to 1000 nM; in the assay with TGF-β (setting [2]), more than 1000 nM.

With `Fc1ccc(-c2nc3n(c2-c2ccc4cn[nH]c4c2)CCC3)cc1F` [Compound 206, 6-(2-(3,4-difluorophenyl)-6,7-dihydro-5H-pyrrolo[1,2-a]imidazol-3-yl)-1H-indazole], the IC50 was 100 to 1000 nM in the assay on GDF8 (setting [1]) and more than 1000 nM in the assay on TGF-β (setting [2]).

As to `COCCOc1cnc2ccc(-c3c(-c4cc(F)c(F)cc4F)nc4n3CCN4)cc2n1` [Compound 115, 2-(2-methoxyethoxy)-7-(6-(2,4,5-trifluorophenyl)-2,3-dihydro-1H-imidazo[1,2-a]imidazol-5-yl)quinoxaline], the IC50 in the assay on GDF8 (setting [1]) and in the assay with TGF-β (setting [2]) was 100 to 1000 nM each time.

`Fc1ccc(Cl)cc1-c1nc2n(c1-c1ccc3ncccc3c1)CCC2` [Compound 338, 6-(2-(5-chloro-2-fluoropheny)-6,7-dihydro-5H-pyrrolo[1,2-a]imidazol-3-yl)quinoline]: the IC50 in the assay with GDF8 (setting [1]) and with TGF-β (setting [2]) was less than 50 nM throughout.

`Cc1cc(-c2nc3n(c2-c2ccc4ncsc4c2)CCC3)cc(C)c1Cl` [Compound 244, 6-(2-(4-chloro-3,5-dimethylphenyl)-6,7-dihydro-5H-pyrrolo[1,2-a]imidazol-3-yl)benzo[d]thiazole]: the IC50 with GDF8 (setting [1]) and in the assay on TGF-β (setting [2]) was more than 1000 nM each time.

With `Fc1ccc(-c2nc3n(c2-c2ccc4nccnc4c2)CCC3)cc1` [Compound 178, 6-(2-(4-fluorophenyl)-6,7-dihydro-5H-pyrrolo[1,2-a]imidazol-3-yl)quinoxaline], the IC50 with GDF8 (setting [4]) was 100 to 1000 nM; in the assay with TGF-β (setting [3]) it was more than 1000 nM.

As for `Cc1cc(-c2nc3n(c2-c2ccc4ncnn4c2)CCC3)c(C)cc1F` [Compound 64, 6-(2-(4-fluoro-2,5-dimethylphenyl)-6,7-dihydro-5H-pyrrolo[1,2-a]imidazol-3-yl)-[1,2,4]triazolo[1,5-a]pyridine], the results for the IC50 with GDF8 (setting [1]) and in the assay with TGF-β (setting [2]) were 100 to 1000 nM and more than 1000 nM, respectively.

With `COc1cccc(-c2nc3n(c2-c2ccc4ncsc4c2)CCC3)c1` [Compound 187, 6-(2-(3-methoxyphenyl)-6,7-dihydro-5H-pyrrolo[1,2-a]imidazol-3-yl)benzo[d]thiazole], the results for the IC50 in the assay with GDF8 (setting [4]) and in the assay with TGF-β (setting [3]) were 50 to 100 nM and 100 to 1000 nM, respectively.

In the case of `Fc1cc(F)c(F)c(-c2nc3n(c2-c2ccc4[nH]ncc4c2)CCC3)c1` [Compound 236, 5-(2-(2,3,5-trifluorophenyl)-6,7-dihydro-5H-pyrrolo[1,2-a]imidazol-3-yl)-1H-indazole], the IC50 in the assay with GDF8 (setting [4]) is 100 to 1000 nM; in the assay with TGF-β (setting [3]) it was more than 1000 nM.

For the compound `NC(=O)C1CCC2(CC1)Cc1nc(-c3ccc(F)cc3)c(-c3ccc4ncnn4c3)n1C2` (stereo not drawn) [Compound 80, 3′-([1,2,4]triazolo[1,5-a]pyridin-6-yl)-2′-(4-fluorophenyl)-5′H,7′H-spiro[cyclohexane-1,6′-pyrrolo[1,2-a]imidazole]-4-carboxamide], the IC50 in the assay with GDF8 (setting [4]) and in the assay on TGF-β (setting [3]) was more than 1000 nM in each case.

On to `Cc1cc(-c2nc3n(c2-c2ccc4[nH]ncc4c2)CCC3)cc(C)c1F` [Compound 276, 5-(2-(4-fluoro-3,5-dimethylphenyl)-6,7-dihydro-5H-pyrrolo[1,2-a]imidazol-3-yl)-1H-indazole], for which the IC50 in the assay on GDF8 (setting [1]) is 100 to 1000 nM; in the assay on TGF-β (setting [2]), more than 1000 nM.

As for `Fc1ccc(-c2nc3occn3c2-c2ccc3[nH]ncc3c2)c(F)c1F` [Compound 160, 6-(2,3,4-trifluorophenyl)-5-(1H-indazol-5-yl)imidazo[2,1-b]oxazole], the IC50 in the assay on GDF8 (setting [1]) was in the range of 50 to 100 nM; with TGF-β (setting [2]), 100 to 1000 nM.

As for `Cc1cc(-c2nc3n(c2-c2ccc4cn[nH]c4c2)CCC3)ccc1F` [Compound 177, 6-(2-(4-fluoro-3-methylphenyl)-6,7-dihydro-5H-pyrrolo[1,2-a]imidazol-3-yl)-1H-indazole], the IC50 lay within 50 to 100 nM in the assay with GDF8 (setting [1]) and 100 to 1000 nM in the assay on TGF-β (setting [2]).

`Fc1cc(F)c(F)c(-c2nc3n(c2-c2ccc4ncnn4c2)CCCN3)c1` [Compound 166, 6-(2-(2,3,5-trifluorophenyl)-5,6,7,8-tetrahydroimidazo[1,2-a]pyrimidin-3-yl)-[1,2,4]triazolo[1,5-a]pyridine]: the IC50 with GDF8 (setting [1]) and in the assay on TGF-β (setting [2]) was 50 to 100 nM in each case.

Consider `Fc1cccc(F)c1-c1nc2n(c1-c1ccc3cn[nH]c3c1)CCC2` [Compound 213, 6-(2-(2,6-difluorophenyl)-6,7-dihydro-5H-pyrrolo[1,2-a]imidazol-3-yl)-1H-indazole], for which the IC50 with GDF8 (setting [1]) and in the assay on TGF-β (setting [2]) was more than 1000 nM each time.

Consider `Fc1ccc(-c2nc3n(c2-c2ccc4ncsc4c2)CC2(CCCC2)C3)cc1` [Compound 325, 6-(2′-(4-fluorophenyl)-5′H,7′H-spiro[cyclopentane-1,6′-pyrrolo[1,2-a]imidazol]-3′-yl)benzo[d]thiazole], for which the IC50 with GDF8 (setting [4]) and with TGF-β (setting [3]) was more than 1000 nM each time.

`COc1c(C)cc(-c2nc3n(c2-c2ccc4nccnc4c2)CCC3)cc1C` [Compound 258, 6-(2-(4-methoxy-3,5-dimethylphenyl)-6,7-dihydro-5H-pyrrolo[1,2-a]imidaol-3-yl)quinoxaline]: the IC50 in the assay with GDF8 (setting [1]) and with TGF-β (setting [2]) was more than 1000 nM each time.

On to `Cc1c(-c2nc3n(c2-c2ccc4ncsc4c2)CCC3)ccc(F)c1F` [Compound 261, 6-(2-(3,4-difluoro-2-methylphenyl)-6,7-dihydro-5H-pyrrolo[1,2-a]imidazol-3-yl)benzo[d]thiazole], for which the IC50 in the assay with GDF8 (setting [1]) is 100 to 1000 nM; with TGF-β (setting [2]), more than 1000 nM.

Regarding `FC(F)(F)c1cccc(-c2nc3n(c2-c2ccc4nccnc4c2)CCC3)c1` [Compound 184, 6-(2-(3-(trifluoromethyl)phenyl)-6,7-dihydro-5H-pyrrolo[1,2-a]imidazol-3-yl)quinoxaline], the IC50 with GDF8 (setting [1]) lay within 50 to 100 nM; in the assay with TGF-β (setting [2]) it was 100 to 1000 nM.
